Assay results from patent US9176118B2, “Methods employing insect models for determining intestinal absorption of chemical compounds” (Entomopharm ApS, priority 2009, dated 2015).

Experiment: Decapitated locust model: hemolymph drug concentration by LCMS after administration via esophageal catheter
Details: male, Locusta migratoria (locust), in vivo
Experimental: The insects may be obtained from local suppliers or bred in house. The grasshoppers were reared under crowded conditions at 28° C. and a 12:12 dark:light photocycle and fed fresh grass and bran. Before experiments the grasshoppers were fed ecologically cultivated wheat for two weeks. Animals used are adult males (in some experiments females) between two to four weeks after adult emergence. After decapitation, test compounds are administrated via a catheter or a probe inserted into the midgut of the animal. At various times after administration hemolymph samples are taken for quantitative determination of drug concentration in the hemolymph. The samples are snap-frozen and stored until analyses. Drug concentration is analysed by HPLC, LC/MSMS or other methods.
The head of male locusts (Locusta migratoria), which have been starving for 12 hours, was cut off and a plastic catheter was inserted under microscope into the esophagus. 20 μl of quinidine (0.1 mg/ml) was administered via the catheter by using a Hamilton syringe.
(§1) 10 and 30 minutes after administration (10 μl) hemolymph was collected with a calibrated capillary tube by puncturing the ventral membrane anterior to the thorax and immediately blown into a tube containing 40 μl aqua dest and 100 μl of acetonitrile. Each sample was centrifuged for 5 minutes (10 000g at 4° C.). 100 μl of the supernatants were transferred to new test tubes for LCMS analysis.
as §1, with “The head of male locusts (Locusta migratoria), which have been starving for 12 hours, was cut off and a plastic catheter was inserted under microscope into the esophagus. 20 μl of quinidine (1 mg/ml) was administered via the catheter by using a Hamilton syringe. 10 and” for “10 and”
The head of male locusts (Locusta migratoria), which have been starving for 12 hours, was cut off and a plastic catheter was inserted under microscope into the esophagus. 20 μl of propranolol (0.1 mg/ml) was administered via the catheter by using a Hamilton syringe.
as §1, with “analysis. […]” for “analysis.”

**Q.** For Cn1c(=O)c2c(ncn2C)n(C)c1=O [caffeine], which concentration at 10 min (2 µg per animal) is on record?
**A.** 0.177 µg/mL

**Q.** And the concentration at 30 min (2 µg per animal)?
**A.** 0.276 µg/mL

**Q.** What about the concentration at 10 min (20 µg per animal) of the same compound?
**A.** 1.15 µg/mL

**Q.** And the concentration at 30 min (20 µg per animal)?
**A.** 1.66 µg/mL
